Data: ChEMBL document CHEMBL3507680, “University of Dundee, Gates Library screen for HepG2 cell viability”

Assay: Human HepG2 cell viability assay in 384 well format
Type: toxicity, cell-based
Set-up: dose 125 nL, time 70.5 hour; concentration not given beside the values
Conditions: HepG2 cells, read-out: Inhibition
For `CCOCC(=O)N1CC(=O)Nc2cc(Br)ccc21`, the cytotoxicity at 70.5 h was -6.53%.
For `c1coc(CN2CCOC3(COCCN(Cc4ccncc4)C3)C2)c1` (stereo not drawn), the cytotoxicity at 70.5 h was -3.4%.
`CC(C)N1CCC2(CC1)C(=O)N(c1cccnc1)c1c(F)cccc12` showed a cytotoxicity at 70.5 h of -2.98%.
Work on `CN(Cc1noc2c1CCCC2)C(=O)Nc1ccc2oc(=O)n(C)c2c1` yielded a cytotoxicity at 70.5 h of 20.6%.
`CCn1c(C)nnc1SCCNC(=O)c1sc(C(C)C)nc1C` gave a cytotoxicity at 70.5 h of -7.2%.
`CCc1ncc2c(n1)CN(Cc1cccc3c1OCCO3)CC2` gave a cytotoxicity at 70.5 h of -3.18%.
Compound `Cc1cnn(CC2CCCN2C(=O)c2cn(-c3ccccc3)nc2C)c1` (stereo not drawn) has a cytotoxicity at 70.5 h of 6.33%.
With `CCc1c(C)nc2ccccc2c1N1CCC(O)CC1` the cytotoxicity at 70.5 h was -3.88%.
`c1ccc(NCc2cccc(OCCN3CCOCC3)c2)nc1` gave a cytotoxicity at 70.5 h of 6.42%.
`Cn1ccnc1CN1C[C@H]2CN(S(=O)(=O)c3ccccc3)CCN2C1=O` gave a cytotoxicity at 70.5 h of -2.62%.
`CC(C)c1ocnc1C(=O)N1CC(=O)Nc2cccnc21` gave a cytotoxicity at 70.5 h of -1.78%.
`CCC(CC)C(=O)NS(=O)(=O)CCc1ccccc1` gave a cytotoxicity at 70.5 h of -23.7%.
Compound `Cc1nnnn1CCC(=O)N1CCC2(CCC(=O)N(CC3CC3)C2)CC1` has a cytotoxicity at 70.5 h of -8.64%.
`O=c1[nH]nc2n1CCN(S(=O)(=O)c1ccccc1Cl)C2` showed a cytotoxicity at 70.5 h of -7.03%.
Work on `N#Cc1ccc(OC2CCN(C(=O)COCC3CCCO3)CC2)cc1` (stereo not drawn) yielded a cytotoxicity at 70.5 h of -9.76%.
With `Cc1csc(C2CCCCN2C(=O)c2cc(C)n(C)n2)n1` (stereo not drawn) the cytotoxicity at 70.5 h was 25.5%.
`Cc1ccc(NC2CCN(C(=O)COc3cccc(F)c3)CC2)nn1` showed a cytotoxicity at 70.5 h of 43.9%.
`CCOCCN1CCN(CCCc2nnnn2-c2ccccc2)CC1` gave a cytotoxicity at 70.5 h of -5.57%.
For `CCCc1cc(CNC2CCN(c3nc(C)cc(C)n3)CC2)on1`, the cytotoxicity at 70.5 h was -5.05%.
With `CN(CCc1cn[nH]c1)C(=O)CCc1ccc(Cl)cc1` the cytotoxicity at 70.5 h was -0.186%.
`COCC(=O)N1CCCCC1c1nccc(C)n1` (stereo not drawn) showed a cytotoxicity at 70.5 h of 3.46%.
Work on `O=C(Nc1ccccn1)C1CC(=O)N(Cc2ccccn2)C1` (stereo not drawn) yielded a cytotoxicity at 70.5 h of 16.8%.
`CS(=O)(=O)NCc1cncc2c1CCN(C(=O)c1cccnc1)C2` gave a cytotoxicity at 70.5 h of -5.3%.
In the case of `CC(CNS(N)(=O)=O)Oc1ccc(Cl)cc1` (stereo not drawn), the cytotoxicity at 70.5 h is reported as 1.53%.
`Cc1noc2nc3c(c(C(=O)/N=c4\[nH]nc(C(C)C)s4)c12)CCC3` gave a cytotoxicity at 70.5 h of -12.5%.
With `O=C(c1ncccn1)N1C[C@H]2CCC[C@@]2(COCc2cccnc2)C1` the cytotoxicity at 70.5 h was 15.8%.
With `CCn1nc(C)c2nnn(CC(=O)Nc3cccc(C)c3)c(=O)c21` the cytotoxicity at 70.5 h was -10.1%.
In the case of `CCc1nnc2sc(-c3cc(C(C)C)n[nH]3)nn12`, the cytotoxicity at 70.5 h is reported as -1.02%.
Work on `CCC(Nc1nnnn1-c1ccccc1)C(=O)NCc1cccs1` (stereo not drawn) yielded a cytotoxicity at 70.5 h of -8.74%.
For `CCC(CO)n1cnc2scc(C)c2c1=O` (stereo not drawn), the cytotoxicity at 70.5 h was -22.7%.
`Cc1ccc(C(=O)N2CCc3ncnc(C)c3CC2)o1` gave a cytotoxicity at 70.5 h of 9.18%.
`COc1ccnc(N2CCN(C(=O)Cc3ccsc3)CC2)n1` showed a cytotoxicity at 70.5 h of -8.71%.
`O=C(O)CC[C@@H]1CN(c2ncccc2F)CC[C@@H]1N1CCOCC1` showed a cytotoxicity at 70.5 h of -8.92%.
In the case of `CN(Cc1ccccc1)C1(C(=O)O)Cc2ccccc2C1`, the cytotoxicity at 70.5 h is reported as -1.88%.
Compound `CNC(=O)C1(c2cnccn2)CCCN1C(=O)c1ccc(OC)cc1` (stereo not drawn) has a cytotoxicity at 70.5 h of 18.7%.
In the case of `CCc1noc(CN(CC)C(=O)CC2C(=O)NCCN2CC(C)(C)C)n1` (stereo not drawn), the cytotoxicity at 70.5 h is reported as 0.786%.
`Cc1ccsc1CN(CCCC(F)(F)F)Cc1ccccn1` showed a cytotoxicity at 70.5 h of -10.1%.
For `O=C(CN(Cc1cccs1)c1ccc(F)cc1)NC1CCOCC1`, the cytotoxicity at 70.5 h was -1.98%.
For `CC(C)N[C@@H]1CC[C@@H]1NC(=O)c1ccccc1OC(F)(F)C(F)F`, the cytotoxicity at 70.5 h was 14.2%.
In the case of `c1csc(CN2CCCn3cnc(COCC4CC4)c3C2)n1`, the cytotoxicity at 70.5 h is reported as -0.793%.
With `CCOC(=O)C1CCCCN1Cc1c[nH]nc1-c1ccc(F)cc1F` (stereo not drawn) the cytotoxicity at 70.5 h was -7.54%.
`c1ccc(CN2C[C@H]3CC[C@@H]2CN(Cc2nnc(C4CC4)o2)C3)cc1` showed a cytotoxicity at 70.5 h of -1.91%.
With `COCc1nc(CN2CC(C)(c3ccccc3)CCC2=O)no1` (stereo not drawn) the cytotoxicity at 70.5 h was -6.99%.
With `Cc1cc(CNC(=O)NCc2cccs2)no1` the cytotoxicity at 70.5 h was -5.03%.
For `CC(C)c1nn(C)c(N(C)C)c1CNCc1ccc(CO)c(F)c1`, the cytotoxicity at 70.5 h was 1.57%.
`N#Cc1ccsc1NC(=O)CN1CCn2c(nnc2C2CC2)C1` gave a cytotoxicity at 70.5 h of -6.74%.
Compound `CC(C#N)CN(C)Cc1nc2c(cnn2C)c(=O)[nH]1` (stereo not drawn) has a cytotoxicity at 70.5 h of -7.12%.
In the case of `Cn1cc(N2CCC(Nc3ccc4nccnc4n3)C2=O)cn1` (stereo not drawn), the cytotoxicity at 70.5 h is reported as -10.5%.
`NC(=O)c1cccc(C(=O)N2CCCC(n3ccnc3)C2)c1` (stereo not drawn) gave a cytotoxicity at 70.5 h of -3.58%.
With `CCC(CNC(=O)c1cccc(S(=O)(=O)NC)c1)N1CCCC1` (stereo not drawn) the cytotoxicity at 70.5 h was -2.78%.
Work on `Cc1cc(N2CCCC2c2cccnc2)nc(C)n1` (stereo not drawn) yielded a cytotoxicity at 70.5 h of 5.57%.
Work on `CNC(=O)CN(C)c1nc(-c2ccncc2)nc2c1CCN(C(C)=O)C2` yielded a cytotoxicity at 70.5 h of -6.78%.
Compound `CCC(CC)S(=O)(=O)NC(=O)c1ccc2c(c1)ncn2C` has a cytotoxicity at 70.5 h of -0.423%.
Work on `N[C@H]1CN(S(=O)(=O)N2CCCC2)C[C@@H]1c1ccccc1` yielded a cytotoxicity at 70.5 h of -4.68%.
In the case of `CCc1nc(CC)n(CC(=O)NCc2cccc(C)c2)n1`, the cytotoxicity at 70.5 h is reported as -6.53%.
For `COCC1COCCC12CCN(C(=O)COc1ccccc1C)CC2` (stereo not drawn), the cytotoxicity at 70.5 h was -2.98%.
With `COC(=O)[C@H]1CN(C(=O)NC(C)C)CCN1C(=O)CSC` the cytotoxicity at 70.5 h was -5.64%.
In the case of `Cc1ccoc1C(=O)N1CCO[C@H]2[C@H](OCCN(C)C)CC[C@@H]21`, the cytotoxicity at 70.5 h is reported as -12.4%.
Work on `COc1ccc(S(=O)(=O)NCC(c2cccn2C)N(C)C)c(C)c1` (stereo not drawn) yielded a cytotoxicity at 70.5 h of -12.6%.
`COc1cccc(CN2CCN(c3ccc4nncn4n3)C(C)C2)c1` (stereo not drawn) showed a cytotoxicity at 70.5 h of 9.6%.
For `NC(=O)COc1ccc(C2NC(=O)CN2Cc2ccc(Br)cc2)cc1` (stereo not drawn), the cytotoxicity at 70.5 h was -14.8%.
Work on `COCC(C)(CCO)NC(=O)Nc1cccc(Br)c1C` (stereo not drawn) yielded a cytotoxicity at 70.5 h of 7.98%.
With `O=C(NCc1cn2c(n1)CN(Cc1ccccn1)CC2)C1CCC1` the cytotoxicity at 70.5 h was -10%.
`CC(C)c1nc(CN2CCCCC2Cn2cncn2)cs1` (stereo not drawn) showed a cytotoxicity at 70.5 h of 16.2%.
In the case of `COc1cc2c(cc1-c1nc3c(cnn3C(C)C3CC3)[nH]1)OCO2` (stereo not drawn), the cytotoxicity at 70.5 h is reported as -2.31%.
`CCN(CC)CCn1cnc(-c2ccccc2)c1-c1ncc[nH]1` showed a cytotoxicity at 70.5 h of -10.3%.
Compound `CCc1ncc2c(n1)CN(CC(=O)Nc1ccncc1)CC2` has a cytotoxicity at 70.5 h of -3.06%.
`O=C(c1nc(=O)[nH][nH]1)N1CCCCCC1` showed a cytotoxicity at 70.5 h of -1.45%.
For `Cc1nn(C)c(C)c1NC(=O)CNC(c1ccccc1)C1CCC1` (stereo not drawn), the cytotoxicity at 70.5 h was -4.47%.
Work on `COCCN(Cc1noc(-c2ccc(OC)cc2)n1)C1CC1` yielded a cytotoxicity at 70.5 h of -0.841%.
Compound `O=C1COc2cc(C(=O)N3CCCC(n4ccnc4)C3)ccc2N1` (stereo not drawn) has a cytotoxicity at 70.5 h of -1.66%.
`Cn1ccnc1CN1CCCN(C(=O)COC2CCCC2)CC1` gave a cytotoxicity at 70.5 h of -2.98%.
With `CC(C)c1nc2c(n1C)CCN(CCCc1nc3ccccc3o1)C2` the cytotoxicity at 70.5 h was -0.617%.
With `O=C(c1cc(Cl)c2c(c1)OCO2)N1CCCC(n2ccnc2)C1` (stereo not drawn) the cytotoxicity at 70.5 h was -8.93%.
Compound `O=C(CN1CCOC(c2ccc(Cl)s2)C1)NCc1ccco1` (stereo not drawn) has a cytotoxicity at 70.5 h of 17%.
In the case of `Cn1nnc2c1CCN(Cc1ccco1)C2COCc1ccccc1` (stereo not drawn), the cytotoxicity at 70.5 h is reported as 1.81%.
`CC(=O)N1Cc2ccccc2OC2(CCN(C(=O)C3CCOC3)CC2)C1` (stereo not drawn) showed a cytotoxicity at 70.5 h of -1.13%.
Compound `CC(CCSc1ccccc1)N1CCCN(C(N)=O)CC1` (stereo not drawn) has a cytotoxicity at 70.5 h of 28.8%.
In the case of `CCC[C@@H]1CN(Cc2c[nH]c(CC3CCCC3)n2)C[C@H]1C(=O)O`, the cytotoxicity at 70.5 h is reported as -7.4%.
For `CN(CCc1ccccc1)Cc1c(C2CCNCC2)[nH]c2ncccc12`, the cytotoxicity at 70.5 h was -6.11%.
In the case of `Cc1nn(-c2ccccc2)c(C)c1CC(=O)NC1CC(=O)N(C)C1` (stereo not drawn), the cytotoxicity at 70.5 h is reported as -7.27%.
For `OC(CNc1ccncn1)CN1CCCCCC1` (stereo not drawn), the cytotoxicity at 70.5 h was -7.06%.
Work on `Cc1ncsc1C(=O)N(C)Cc1ccncc1` yielded a cytotoxicity at 70.5 h of 28.4%.
